Test results reported in patent US8735584B2 (Merck Patent GmbH, priority 2008, dated 2014).

Assays:
Assay type in all cases: biochemical
AurA = biological target: T1, AurA (Homo sapiens, UniProt O14965); test: Desktop Profiler kinase panel, AurA; details: for inhibition at 10 µM: 10 micromolar concentration of the compound, read-out: Percent Inhibition AurA; for inhibition at 1 µM: 1 micromolar concentration of the compound
T1 construct: purchased Caliper Life Sciences
T1 sequence (O14965 1-403): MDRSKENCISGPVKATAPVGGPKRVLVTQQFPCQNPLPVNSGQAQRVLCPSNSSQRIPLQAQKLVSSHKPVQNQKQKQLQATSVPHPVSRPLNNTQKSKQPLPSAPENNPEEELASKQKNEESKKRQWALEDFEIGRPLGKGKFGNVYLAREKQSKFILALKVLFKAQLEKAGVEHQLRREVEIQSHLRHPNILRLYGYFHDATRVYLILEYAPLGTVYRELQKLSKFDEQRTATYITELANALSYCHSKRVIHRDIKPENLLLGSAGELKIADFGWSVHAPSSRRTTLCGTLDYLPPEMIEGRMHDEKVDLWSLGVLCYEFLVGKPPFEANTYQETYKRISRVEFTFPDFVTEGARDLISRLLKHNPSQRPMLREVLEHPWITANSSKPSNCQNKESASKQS
Method: (§1) The Aurora assays described here are performed on two Caliper Life Sciences systems: the LC3000 and the Desktop Profiler. These provide data on enzyme activity via measurement of the relative amounts of phosphorylated or unphosphorylated fluorescently labelled substrate peptide at the end of an enzymatic reaction. These different states of peptide are resolved by applying a potential difference across the sample. The presence of the charged phosphate group on the product (as opposed to the substrate) causes a different peptide mobility between the two peptides. This is visualized by excitation of the fluorescent label on the substrate and product peptides and represented as peaks within the analysis software.
(§2) The Desktop Profiler utilizes the same principle as the LC3000 for calculating percentage conversion of a substrate to product. Caliper Life Sciences provides proprietary flash frozen pre-made 384 well plates containing selected kinases. Each column in the 384 well plate contains a particular selected kinase. A second plate, the ‘substrate plate’ contains a mix of fluorescently labeled peptide substrate and ATP. These are arranged in columns so that transfer for substrate plate to enzyme plate provides the correct enzyme with the correct substrate/ATP concentration. Compounds are added to a thawed enzyme plate in the desired format, in single concentrations. Reactions are initiated by transfer of the substrate/ATP mix from the substrate plate. The enzyme plate is incubated for 90 mins at 25 C. The reaction is stopped by addition of 70 ul of Stop Buffer (100 mM HEPES pH 7.5, 0.015% Brij-35, 10 mM EDTA (Sigma, E7889)).
(§3) Reading of the plate in the Profiler is identical to the LC3000, and the ratio between substrate and product peaks provides the activity of the enzyme in that well. This is best represented by a plate heat map which colors each well by percent inhibition as compared to positive and negative controls (no inhibitors and no ATP respectively).
(§4) In the following Tables 3a-4-b, which show the results of the desktop profiler measurements, “+” means 50-70% inhibition, “++” means 70-90% inhibition, and “+++” means >90% inhibition. The enzymes tested for profiling were ABL, AKT1, AKT2, AurA, CHK1, CHK2, CK1d, Erk1, Erk2, FYN, GSK3b, INSR, LCK, LYN, MAPKAPK2, MET, MSK1, p38a, PKA, PKCz, PKD2, PRAK, RSK1 and SRC.

FYN = biological target: T2, FYN (Homo sapiens, UniProt P06241); test: Desktop Profiler kinase panel, FYN; details: for inhibition at 10 µM: 10 micromolar concentration of the compound, read-out: Percent Inhibition FYN; for inhibition at 1 µM: 1 micromolar concentration of the compound
T2 construct: purchased Caliper Life Sciences
Method: as §1, §2, §3, §4

ABL = biological target: T3, ABL (Homo sapiens, UniProt P00519); test: Desktop Profiler kinase panel, ABL; details: for inhibition at 10 µM: 10 micromolar concentration of the compound, read-out: Percent Inhibition ABL; for inhibition at 1 µM: 1 micromolar concentration of the compound
T3 construct: purchased Caliper Life Sciences
Method: as §1, §2, §3, §4

LCK = biological target: T4, LCK (Homo sapiens, UniProt P06239); test: Desktop Profiler kinase panel, LCK; details: for inhibition at 10 µM: 10 micromolar concentration of the compound, read-out: Percent Inhibition LCK
T4 construct: purchased Caliper Life Sciences
Method: as §1, §2, §3, §4

LYN = biological target: T5, LYN (Homo sapiens, UniProt P07948); test: Desktop Profiler kinase panel, LYN; details: for inhibition at 10 µM: 10 micromolar concentration of the compound, read-out: Percent Inhibition LYN
T5 construct: purchased Caliper Life Sciences
Method: as §1, §2, §3, §4

SRC = biological target: T6, SRC (Homo sapiens, UniProt P12931); test: Desktop Profiler kinase panel, SRC; details: for inhibition at 10 µM: 10 micromolar concentration of the compound, read-out: Percent Inhibition SRC; for inhibition at 1 µM: 1 micromolar concentration of the compound
T6 construct: purchased Caliper Life Sciences
Method: as §1, §2, §3, §4

GST-Aurora A = biological target: T7, GST-Aurora A (Homo sapiens, UniProt O14965); test: Aurora A IC50, Caliper LC3000 mobility shift assay; details: LC3000 method; 15 uM ATP (the KM value); read-out: Aurora Kinase A Activity (IC50)
T7 construct: N-terminal GST fusion with full length Aurora A (1-403 amino acids); purchased Carna Biosciences 05-101
T7 sequence (O14965 1-403): T1 sequence (O14965 1-403)
Method in brief: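 Readout: percent conversion of FITC-LRRASLG (1 uM) to phosphopeptide, resolved electrophoretically on a Caliper LC3000, fitted against inhibitor concentration for IC50. Reaction: N-terminal GST full-length Aurora A, ATP at its KM (15 uM), pH 7.5 HEPES with MgCl2/DTT, 25 C for 90 min.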

CHK2 = biological target: T8, CHK2 (Homo sapiens, UniProt O96017); test: Desktop Profiler kinase panel, CHK2; details: 10 micromolar concentration of the compound; read-out: Percent Inhibition CHK2
T8 construct: purchased Caliper Life Sciences
Method: as §1, §2, §3, §4

[1] = 1 micromolar concentration of the compound

T8 sequence (O96017 whole entry, species assumed): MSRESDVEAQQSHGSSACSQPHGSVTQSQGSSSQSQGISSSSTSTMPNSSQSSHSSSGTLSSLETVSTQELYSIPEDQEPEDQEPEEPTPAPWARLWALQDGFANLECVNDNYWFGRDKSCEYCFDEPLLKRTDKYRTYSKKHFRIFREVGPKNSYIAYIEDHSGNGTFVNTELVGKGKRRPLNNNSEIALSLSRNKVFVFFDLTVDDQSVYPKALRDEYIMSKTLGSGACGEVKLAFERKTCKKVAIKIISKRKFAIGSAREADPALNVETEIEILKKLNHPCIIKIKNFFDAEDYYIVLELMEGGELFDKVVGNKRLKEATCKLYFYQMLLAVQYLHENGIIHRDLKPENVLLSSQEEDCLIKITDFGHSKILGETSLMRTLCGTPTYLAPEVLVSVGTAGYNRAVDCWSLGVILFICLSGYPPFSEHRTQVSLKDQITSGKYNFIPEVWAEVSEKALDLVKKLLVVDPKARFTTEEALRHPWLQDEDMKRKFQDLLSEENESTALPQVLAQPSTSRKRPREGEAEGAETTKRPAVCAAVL
T4 sequence (P06239 whole entry, species assumed): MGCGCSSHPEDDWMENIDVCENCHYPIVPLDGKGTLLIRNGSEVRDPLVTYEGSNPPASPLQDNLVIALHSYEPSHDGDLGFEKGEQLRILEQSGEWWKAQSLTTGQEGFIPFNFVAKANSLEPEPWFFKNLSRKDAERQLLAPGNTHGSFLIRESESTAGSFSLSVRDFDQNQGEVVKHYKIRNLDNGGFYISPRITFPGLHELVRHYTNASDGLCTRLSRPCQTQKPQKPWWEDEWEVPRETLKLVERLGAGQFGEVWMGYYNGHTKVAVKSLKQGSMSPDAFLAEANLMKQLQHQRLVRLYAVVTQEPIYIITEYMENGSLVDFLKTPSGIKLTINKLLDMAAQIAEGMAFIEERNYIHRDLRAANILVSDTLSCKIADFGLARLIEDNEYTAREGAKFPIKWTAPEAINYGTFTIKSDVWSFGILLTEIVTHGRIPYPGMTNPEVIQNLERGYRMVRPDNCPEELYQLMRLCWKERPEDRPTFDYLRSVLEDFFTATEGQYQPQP
T2 sequence (P06241 whole entry, species assumed): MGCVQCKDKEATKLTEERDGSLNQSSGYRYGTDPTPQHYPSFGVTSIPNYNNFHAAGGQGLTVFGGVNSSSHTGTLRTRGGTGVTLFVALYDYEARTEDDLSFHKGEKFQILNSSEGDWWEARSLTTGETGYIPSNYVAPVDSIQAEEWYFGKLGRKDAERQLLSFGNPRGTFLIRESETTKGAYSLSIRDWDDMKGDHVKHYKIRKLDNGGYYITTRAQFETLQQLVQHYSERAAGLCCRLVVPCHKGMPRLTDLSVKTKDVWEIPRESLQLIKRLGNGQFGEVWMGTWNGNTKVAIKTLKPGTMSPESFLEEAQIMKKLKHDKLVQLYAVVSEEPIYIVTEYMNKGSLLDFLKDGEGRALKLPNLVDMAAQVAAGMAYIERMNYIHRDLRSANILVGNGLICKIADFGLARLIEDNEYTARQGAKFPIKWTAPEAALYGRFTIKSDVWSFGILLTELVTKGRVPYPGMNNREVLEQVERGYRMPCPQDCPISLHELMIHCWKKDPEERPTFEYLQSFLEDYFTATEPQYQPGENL
T5 sequence (P07948 whole entry, species assumed): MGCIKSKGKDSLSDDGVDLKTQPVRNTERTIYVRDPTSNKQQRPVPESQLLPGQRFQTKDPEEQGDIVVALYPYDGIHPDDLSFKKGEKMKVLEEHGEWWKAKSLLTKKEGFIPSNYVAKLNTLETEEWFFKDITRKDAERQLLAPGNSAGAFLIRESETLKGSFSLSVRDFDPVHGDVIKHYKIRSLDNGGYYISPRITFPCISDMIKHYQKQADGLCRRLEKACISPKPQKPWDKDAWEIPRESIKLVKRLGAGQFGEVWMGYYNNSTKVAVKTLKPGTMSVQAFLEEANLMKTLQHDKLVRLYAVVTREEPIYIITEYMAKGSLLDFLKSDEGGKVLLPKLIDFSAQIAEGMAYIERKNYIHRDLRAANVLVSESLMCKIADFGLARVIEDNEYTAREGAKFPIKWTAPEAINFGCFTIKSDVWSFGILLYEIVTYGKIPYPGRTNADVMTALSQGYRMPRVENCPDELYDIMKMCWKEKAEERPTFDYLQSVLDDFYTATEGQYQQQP
T6 sequence (P12931 whole entry, species assumed): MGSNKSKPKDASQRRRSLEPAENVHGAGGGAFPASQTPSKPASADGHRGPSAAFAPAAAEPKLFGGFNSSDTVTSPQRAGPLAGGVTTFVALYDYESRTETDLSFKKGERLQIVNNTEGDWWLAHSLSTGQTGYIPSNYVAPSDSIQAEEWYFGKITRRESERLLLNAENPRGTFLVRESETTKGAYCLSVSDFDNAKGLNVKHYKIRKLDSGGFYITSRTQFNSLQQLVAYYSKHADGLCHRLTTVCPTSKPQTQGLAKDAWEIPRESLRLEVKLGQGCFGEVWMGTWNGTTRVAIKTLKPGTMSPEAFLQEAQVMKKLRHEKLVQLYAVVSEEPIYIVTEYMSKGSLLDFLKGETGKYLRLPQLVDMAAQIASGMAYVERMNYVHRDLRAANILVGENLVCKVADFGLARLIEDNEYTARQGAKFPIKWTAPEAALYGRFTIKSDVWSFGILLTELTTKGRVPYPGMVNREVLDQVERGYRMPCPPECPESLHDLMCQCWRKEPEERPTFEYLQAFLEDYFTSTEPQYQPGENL
T3 sequence (P00519 whole entry, species assumed): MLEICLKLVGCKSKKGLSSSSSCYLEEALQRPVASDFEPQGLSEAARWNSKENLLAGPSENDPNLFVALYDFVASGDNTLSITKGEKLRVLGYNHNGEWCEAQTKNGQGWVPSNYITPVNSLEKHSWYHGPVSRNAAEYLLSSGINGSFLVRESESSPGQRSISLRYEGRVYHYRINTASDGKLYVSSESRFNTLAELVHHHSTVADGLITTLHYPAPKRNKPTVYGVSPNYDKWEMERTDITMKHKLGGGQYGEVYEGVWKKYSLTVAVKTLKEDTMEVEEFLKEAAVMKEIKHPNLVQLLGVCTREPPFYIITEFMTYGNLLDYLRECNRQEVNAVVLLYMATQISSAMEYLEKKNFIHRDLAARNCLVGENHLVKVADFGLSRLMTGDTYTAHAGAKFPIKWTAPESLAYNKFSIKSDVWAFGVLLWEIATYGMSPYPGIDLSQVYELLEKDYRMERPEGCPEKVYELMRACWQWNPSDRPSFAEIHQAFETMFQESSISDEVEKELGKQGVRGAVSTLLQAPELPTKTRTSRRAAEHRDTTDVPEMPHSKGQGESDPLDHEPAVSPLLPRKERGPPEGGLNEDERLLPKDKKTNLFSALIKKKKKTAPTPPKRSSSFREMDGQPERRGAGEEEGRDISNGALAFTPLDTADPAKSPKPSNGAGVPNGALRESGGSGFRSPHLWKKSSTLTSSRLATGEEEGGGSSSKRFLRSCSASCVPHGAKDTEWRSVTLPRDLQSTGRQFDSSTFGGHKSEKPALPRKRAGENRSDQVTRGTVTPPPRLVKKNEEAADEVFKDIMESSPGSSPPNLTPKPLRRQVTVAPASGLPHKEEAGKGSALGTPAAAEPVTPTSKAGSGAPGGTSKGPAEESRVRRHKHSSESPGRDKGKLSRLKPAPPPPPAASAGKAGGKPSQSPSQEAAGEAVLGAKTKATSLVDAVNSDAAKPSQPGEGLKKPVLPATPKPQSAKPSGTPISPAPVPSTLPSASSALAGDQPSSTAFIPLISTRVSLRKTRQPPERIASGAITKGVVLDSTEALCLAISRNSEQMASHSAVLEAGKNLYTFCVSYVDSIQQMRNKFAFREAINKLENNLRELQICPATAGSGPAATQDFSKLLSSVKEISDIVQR

| inhibition at 10 µM (AurA) [%] | inhibition at 10 µM (FYN) [%] | inhibition at 1 µM (AurA) [%] | IC50 (GST-Aurora A) [nM] | Compound | other results |
| --- | --- | --- | --- | --- | --- |
| 50 to 70 |  |  |  | O=c1[nH]c2ncccc2c2cc(Cl)ccc12 [Example 6, 9-Chloro-5H-benzo[c][1,8]naphthyridin-6-one] |  |
| 50 to 70 |  |  |  | O=c1[nH]c2ncc(Cl)cc2c2ccccc12 [Example 9, 2-Chloro-5H-benzo[c][1,8]naphthyridin-6-one] |  |
|  | 50 to 70 |  |  | O=c1[nH]c2ncc(Nc3ccccc3)cc2c2ccccc12 [Example 12, 2-Phenylamino-5H-benzo[c][1,8]naphthyridin-6-one] | inhibition at 10 µM (ABL): 70 to 90% |
|  | > 90 |  |  | O=c1[nH]c2ncc(NCc3ccccc3)cc2c2ccccc12 [Example 13, 2-Benzylamino-5H-benzo[c][1,8]naphthyridin-6-one] | inhibition at 10 µM (LCK): 50 to 70%; inhibition at 10 µM (LYN): 70 to 90%; inhibition at 10 µM (SRC): 70 to 90%; inhibition at 10 µM (ABL): 50 to 70% |
|  |  | 70 to 90 | > 100 | O=c1[nH]c2ncccc2c2cc(NCc3ccccc3)ccc12 [Example 25, 9-Benzylamino-5H-benzo[c][1,8]naphthyridin-6-one] |  |
| 70 to 90 |  |  |  | O=c1[nH]c2ncccc2c2cc(N3CCOCC3)ccc12 [Example 26, 9-Morpholin-4-yl-5H-benzo[c][1,8]naphthyridin-6-one] | inhibition at 10 µM (CHK2): 50 to 70% |
| 70 to 90 |  |  |  | COCCNc1ccc2c(=O)[nH]c3ncccc3c2c1 [Example 27, 9-(2-Methoxy-ethylamino)-5H-benzo[c][1,8]naphthyridin-6-one] | inhibition at 10 µM (CHK2): 50 to 70% |
| 70 to 90 |  | 50 to 70 | > 100 | COc1ccc(Nc2ccc3c(=O)[nH]c4ncccc4c3c2)cc1 [Example 29, 9-(4-Methoxy-phenylamino)-5H-benzo[c][1,8]naphthyridin-6-one] |  |
| > 90 | 50 to 70 | 70 to 90 | > 100 | COc1ccccc1Nc1ccc2c(=O)[nH]c3ncccc3c2c1 [Example 30, 9-(2-Methoxy-phenylamino)-5H-benzo[c][1,8]naphthyridin-6-one] | inhibition at 10 µM (LYN): 70 to 90%; inhibition at 10 µM (SRC): 50 to 70%; inhibition at 10 µM (ABL): 50 to 70% |
| 70 to 90 |  | 50 to 70 |  | COc1ccc(CNc2ccc3c(=O)[nH]c4ncccc4c3c2)cc1 [Example 33, 9-(4-Methoxy-benzylamino)-5H-benzo[c][1,8]naphthyridin-6-one] |  |
|  |  | > 90 | > 100 | COc1ccccc1CNc1ccc2c(=O)[nH]c3ncccc3c2c1 [Example 34, 9-(2-Methoxy-benzylamino)-5H-benzo[c][1,8]naphthyridin-6-one] |  |
|  |  | > 90 | > 100 | O=c1[nH]c2ncccc2c2cc(NCc3cccc(F)c3)ccc12 [Example 35, 9-(3-Fluoro-benzylamino)-5H-benzo[c][1,8]naphthyridin-6-one] |  |
| > 90 | 50 to 70 | 50 to 70 | > 100 | COc1ccc(CCNc2ccc3c(=O)[nH]c4ncccc4c3c2)cc1 [Example 36, 9-[2-(4-Methoxy-phenyl)-ethylamino]-5H-benzo[c][1,8]naphthyridin-6-one] | inhibition at 10 µM (CHK2): 70 to 90% |
| 50 to 70 |  |  |  | COc1ccc(CNc2cnc3[nH]c(=O)c4ccccc4c3c2)cc1 [Example 37, 2-(4-Methoxy-benzylamino)-5H-benzo[c][1,8]naphthyridin-6-one] |  |
| 50 to 70 |  |  |  | COc1cccc(CNc2cnc3[nH]c(=O)c4ccccc4c3c2)c1 [Example 38, 2-(3-Methoxy-benzylamino)-5H-benzo[c][1,8]naphthyridin-6-one] |  |
| 50 to 70 |  |  |  | COc1ccccc1CNc1cnc2[nH]c(=O)c3ccccc3c2c1 [Example 39, 2-(2-Methoxy-benzylamino)-5H-benzo[c][1,8]naphthyridin-6-one] |  |
| 70 to 90 | > 90 | 50 to 70 |  | O=c1[nH]c2nccc(Nc3ccccc3)c2c2ccccc12 [Example 95, 1-Phenylamino-5H-benzo[c][1,8]naphthyridin-6-one] | inhibition at 1 µM (LCK; [1]): 50 to 70%; inhibition at 10 µM (LCK): 70 to 90%; inhibition at 10 µM (LYN): > 90%; inhibition at 10 µM (CHK2): 50 to 70%; inhibition at 1 µM (FYN): > 90%; inhibition at 1 µM (SRC): > 90%; inhibition at 10 µM (SRC): > 90%; inhibition at 1 µM (ABL): > 90%; inhibition at 10 µM (ABL): > 90% |
| > 90 | 50 to 70 | 70 to 90 | > 100 | COc1ccccc1Nc1ccnc2[nH]c(=O)c3ccccc3c12 [Example 114, 1-(2-Methoxy-phenylamino)-5H-benzo[c][1,8]naphthyridin-6-one] | inhibition at 10 µM (LCK): 50 to 70%; inhibition at 1 µM (LYN; [1]): 70 to 90%; inhibition at 10 µM (LYN): > 90%; inhibition at 10 µM (CHK2): 50 to 70%; inhibition at 1 µM (FYN): 70 to 90%; inhibition at 1 µM (SRC): 70 to 90%; inhibition at 10 µM (SRC): > 90%; inhibition at 1 µM (ABL): 70 to 90%; inhibition at 10 µM (ABL): > 90% |
| 50 to 70 | 70 to 90 |  |  | O=c1[nH]c2nccc(Nc3ccc(Oc4ccccc4)cc3)c2c2ccccc12 [Example 121, 1-(4-Phenoxy-phenylamino)-5H-benzo[c][1,8]naphthyridin-6-one] | inhibition at 10 µM (LCK): 70 to 90%; inhibition at 10 µM (LYN): 70 to 90%; inhibition at 10 µM (SRC): 70 to 90% |
|  |  |  |  | COc1ccc(Oc2ccnc3[nH]c(=O)c4ccccc4c23)cc1 [Example 125, 1-(4-Methoxy-phenoxy)-5H-benzo[c][1,8]naphthyridin-6-one] | inhibition at 1 µM (FYN): 70 to 90%; inhibition at 1 µM (ABL): 70 to 90% |
|  | 50 to 70 |  |  | Clc1nc2nccc(Oc3ccccc3)c2c2ccccc12 [Example 140, 6-Chloro-1-phenoxy-benzo[c][1,8]naphthyridine] | inhibition at 10 µM (SRC): 50 to 70%; inhibition at 10 µM (ABL): 50 to 70% |
| 50 to 70 |  |  |  | Nc1ccnc2[nH]c(=O)c3ccccc3c12 [Example 141, 1-Amino-5H-benzo[c][1,8]naphthyridin-6-one] |  |
|  |  |  | 11 to 100 | COc1cc2c(=O)[nH]c3nccc(Nc4ccccc4F)c3c2cc1OC [Example 216, 1-(2-Fluoro-phenylamino)-8,9-dimethoxy-5H-benzo[c][1,8]naphthyridin-6-one] |  |
|  |  |  | > 100 | O=C(c1ccc(F)cc1C(F)(F)F)N1CCOc2cc(Oc3ccnc4[nH]c(=O)c5ccccc5c34)ccc21 [Example 219, 1-[4-(4-Fluoro-2-trifluoromethyl-benzoyl)-3,4-dihydro-2H-benzo[1,4]oxazin-7-yloxy]-5H-benzo[c][1,8]naphthyridin-6-one] |  |
|  |  |  | > 100 | O=C(c1cccn(-c2ccc(F)cc2)c1=O)N1CCOc2cc(Oc3ccnc4[nH]c(=O)c5ccccc5c34)ccc21 [Example 228, 1-{4-[1-(4-Fluoro-phenyl)-2-oxo-1,2-dihydro-pyridine-3-carbonyl]-3,4-dihydro-2H-benzo[1,4]oxazin-7-yloxy}-5H-benzo[c][1,8]naphthyridin-6-one] |  |
